# Source: US20100298141A1, “SUBSTITUTED PYRIDINE N-OXIDE HERBICIDES” (E. I. DU PONT DE NEMOURS AND COMPANY, priority 2007, published 2010)
# Key:
# Assay in all cases: Test F preemergence test
# [1] = system: purple nutsedge; format: in vivo, Cyperus rotundus; details: scale 0 to 100
# Summary of the method: (§1)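 Preemergence application to planted seeds, or postemergence to sugarcane plants; compound in non-phytotoxic solvent mix plus surfactant. Greenhouse, 14-21 days. Visual rating vs. controls.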
# [2] = system: itchgrass; format: in vivo, Rottboellia cochinchinensis; details: scale 0 to 100
# Summary of the method: as §1
# [3] = system: common purslane; format: in vivo, Portulaca oleracea; details: scale 0 to 100
# Summary of the method: as §1
# [4] = system: pitted morningglory; format: in vivo, Ipomoea lacunosa; details: scale 0 to 100
# Summary of the method: as §1
# [5] = system: annual bluegrass; format: in vivo, Poa annua; details: scale 0 to 100
# Summary of the method: as §1
# [6] = system: naked crabgrass; format: in vivo, Digitaria nuda; details: scale 0 to 100
# Summary of the method: as §1
# [7] = system: common groundsel; format: in vivo, Senecio vulgaris; details: scale 0 to 100; for Plant response rating, Groundsel: 31 g ai/ha
# Summary of the method: as §1
# [8] = system: johnsongrass; format: in vivo, Sorghum halepense; details: scale 0 to 100
# Summary of the method: as §1
# [9] = system: field bindweed; format: in vivo, Convolvulus arvensis; details: scale 0 to 100
# Summary of the method: as §1
# [10] = system: barnyardgrass; format: in vivo, Echinochloa crus-galli
# Summary of the method: as §1
# [11] = system: common ragweed; format: in vivo, Ambrosia elation; details: scale 0 to 100
# Summary of the method: as §1
# [12] = system: southern sandbur; format: in vivo, Cenchrus echinatus; details: scale 0 to 100
# Summary of the method: as §1
# [13] = system: large crabgrass; format: in vivo, Digitaria sanguinalis; details: scale 0 to 100
# Summary of the method: as §1
# [14] = system: Italian ryegrass; format: in vivo, Lolium multiflorum; details: scale 0 to 100
# Summary of the method: as §1
# [15] = system: goosegrass; format: in vivo, Eleusine indica; details: scale 0 to 100
# Summary of the method: as §1
# [16] = system: green foxtail; format: in vivo, Setaria viridis; details: scale 0 to 100
# Summary of the method: as §1
# [17] = 62 g ai/ha, Preemergence, scale 0 to 100
# [18] = 125 g ai/ha, preemergence, scale 0 to 100
# [19] = Preemergence, 31 g ai/ha, scale 0 to 100
smiles,measurement,setting,value
CCn1nc(C(F)(F)F)c(C[S+]([O-])c2cc(C)cc[n+]2[O-])c1OCC(F)(F)F (racemic) [Compound 66],"Plant response rating, Purple Nutsedge","[1]; 16 g ai/ha, preemergence",25
same,Purple Nutsedge plant response rating,"[1]; 62 g ai/ha, Preemergence",60
same,Purple Nutsedge plant response rating,"[1]; 125 g ai/ha, preemergence",100
same,"Plant response rating, Purple Nutsedge","[1]; Preemergence, 31 g ai/ha",40
same,"Plant response rating, Itchgrass","[2]; 16 g ai/ha, preemergence",0
same,Itchgrass plant response rating,"[2]; 62 g ai/ha, Preemergence",70
same,Itchgrass plant response rating,"[2]; 125 g ai/ha, preemergence",90
same,"Plant response rating, Itchgrass","[2]; Preemergence, 31 g ai/ha",50
same,"Plant response rating, Purslane","[3]; 16 g ai/ha, preemergence",0
same,Purslane plant response rating,"[3]; 62 g ai/ha, Preemergence",50
same,Purslane plant response rating,"[3]; 125 g ai/ha, preemergence",60
same,"Plant response rating, Purslane","[3]; Preemergence, 31 g ai/ha",0
same,"Plant response rating, Morningglory","[4]; 16 g ai/ha, preemergence",0
same,Morningglory plant response rating,"[4]; 62 g ai/ha, Preemergence",80
same,Morningglory plant response rating,"[4]; 125 g ai/ha, preemergence",100
same,"Plant response rating, Morningglory","[4]; Preemergence, 31 g ai/ha",65
same,"Plant response rating, Bluegrass","[5]; 16 g ai/ha, preemergence",0
same,Bluegrass plant response rating,"[5]; 62 g ai/ha, Preemergence",70
same,Bluegrass plant response rating,"[5]; 125 g ai/ha, preemergence",80
same,"Plant response rating, Bluegrass","[5]; Preemergence, 31 g ai/ha",20
same,"Plant response rating, Crabgrass, Naked","[6]; 16 g ai/ha, preemergence",0
same,"Crabgrass, Naked plant response rating","[6]; 62 g ai/ha, Preemergence",100
same,"Crabgrass, Naked plant response rating","[6]; 125 g ai/ha, preemergence",100
same,"Plant response rating, Crabgrass, Naked","[6]; Preemergence, 31 g ai/ha",25
same,Groundsel plant response rating,"[7]; 62 g ai/ha, Preemergence",80
same,Groundsel plant response rating,"[7]; 125 g ai/ha, preemergence",100
same,"Plant response rating, Groundsel",[7]; Preemergence,20
same,"Plant response rating, Johnsongrass","[8]; 16 g ai/ha, preemergence",35
same,Johnsongrass plant response rating,"[8]; 62 g ai/ha, Preemergence",90
same,Johnsongrass plant response rating,"[8]; 125 g ai/ha, preemergence",100
same,"Plant response rating, Johnsongrass","[8]; Preemergence, 31 g ai/ha",65
same,"Plant response rating, Field Bindweed","[9]; 16 g ai/ha, preemergence",30
same,Field Bindweed plant response rating,"[9]; 62 g ai/ha, Preemergence",40
same,Field Bindweed plant response rating,"[9]; 125 g ai/ha, preemergence",75
same,"Plant response rating, Field Bindweed","[9]; Preemergence, 31 g ai/ha",40
same,"Plant response rating, Barnyardgrass","[10]; 16 g ai/ha, preemergence, scale 0 to 100 (0 no effect, 100 complete control)",30
same,Barnyardgrass plant response rating,[10]; [17],100
same,Barnyardgrass plant response rating,[10]; [18],100
same,"Plant response rating, Barnyardgrass",[10]; [19],75
same,"Plant response rating, Ragweed","[11]; 16 g ai/ha, preemergence",0
same,Ragweed plant response rating,"[11]; 125 g ai/ha, preemergence",80
same,"Plant response rating, Ragweed","[11]; Preemergence, 62 g ai/ha",70
same,"Plant response rating, Ragweed","[11]; Preemergence, 31 g ai/ha",70
same,"Plant response rating, Sandbur","[12]; 16 g ai/ha, preemergence",15
same,Sandbur plant response rating,"[12]; 125 g ai/ha, preemergence",100
same,"Plant response rating, Sandbur","[12]; Preemergence, 62 g ai/ha",100
same,"Plant response rating, Sandbur","[12]; Preemergence, 31 g ai/ha",70
same,"Plant response rating, Crabgrass, Large","[13]; 16 g ai/ha, preemergence",0
same,"Crabgrass, Large plant response rating","[13]; 62 g ai/ha, Preemergence",80
same,"Crabgrass, Large plant response rating","[13]; 125 g ai/ha, preemergence",95
same,"Plant response rating, Crabgrass, Large","[13]; Preemergence, 31 g ai/ha",70
same,"Plant response rating, Ryegrass, Italian","[14]; 16 g ai/ha, preemergence",0
same,"Ryegrass, Italian plant response rating","[14]; 125 g ai/ha, preemergence",70
same,"Plant response rating, Ryegrass, Italian","[14]; Preemergence, 62 g ai/ha",60
same,"Plant response rating, Ryegrass, Italian","[14]; Preemergence, 31 g ai/ha",50
same,"Plant response rating, Goosegrass","[15]; 16 g ai/ha, preemergence",40
same,Goosegrass plant response rating,"[15]; 62 g ai/ha, Preemergence",75
same,Goosegrass plant response rating,"[15]; 125 g ai/ha, preemergence",100
same,"Plant response rating, Goosegrass","[15]; Preemergence, 31 g ai/ha",60
same,"Plant response rating, Foxtail, Green","[16]; 16 g ai/ha, preemergence",10
same,"Foxtail, Green plant response rating","[16]; 62 g ai/ha, Preemergence",90
same,"Foxtail, Green plant response rating","[16]; 125 g ai/ha, preemergence",100
same,"Plant response rating, Foxtail, Green","[16]; Preemergence, 31 g ai/ha",60
Cn1nc(C(F)(F)F)c(C[S+]([O-])c2ccc(F)c[n+]2[O-])c1OC(F)F (stereo not shown) [Compound 58],Purple Nutsedge plant response rating,"[1]; 62 g ai/ha, Preemergence",80
same,Purple Nutsedge plant response rating,"[1]; 125 g ai/ha, preemergence",95
same,Purple Nutsedge plant response rating,"[1]; 250 g ai/ha, preemergence",95
same,"Plant response rating, Purple Nutsedge","[1]; Preemergence, 31 g ai/ha",0
same,Itchgrass plant response rating,"[2]; 62 g ai/ha, Preemergence",75
same,Itchgrass plant response rating,"[2]; 125 g ai/ha, preemergence",90
same,Itchgrass plant response rating,"[2]; 250 g ai/ha, preemergence",100
same,"Plant response rating, Itchgrass","[2]; Preemergence, 31 g ai/ha",35
same,Purslane plant response rating,"[3]; 62 g ai/ha, Preemergence",25
same,Purslane plant response rating,"[3]; 125 g ai/ha, preemergence",80
same,Purslane plant response rating,"[3]; 250 g ai/ha, preemergence",100
same,"Plant response rating, Purslane","[3]; Preemergence, 31 g ai/ha",0
same,Morningglory plant response rating,"[4]; 62 g ai/ha, Preemergence",70
same,Morningglory plant response rating,"[4]; 125 g ai/ha, preemergence",100
same,Morningglory plant response rating,"[4]; 250 g ai/ha, preemergence",100
same,"Plant response rating, Morningglory","[4]; Preemergence, 31 g ai/ha",50
same,Bluegrass plant response rating,"[5]; 62 g ai/ha, Preemergence",70
same,Bluegrass plant response rating,"[5]; 125 g ai/ha, preemergence",95
same,Bluegrass plant response rating,"[5]; 250 g ai/ha, preemergence",100
same,"Plant response rating, Bluegrass","[5]; Preemergence, 31 g ai/ha",0
same,"Crabgrass, Naked plant response rating","[6]; 62 g ai/ha, Preemergence",100
same,"Crabgrass, Naked plant response rating","[6]; 125 g ai/ha, preemergence",100
same,"Crabgrass, Naked plant response rating","[6]; 250 g ai/ha, preemergence",100
same,"Plant response rating, Crabgrass, Naked","[6]; Preemergence, 31 g ai/ha",75
same,Groundsel plant response rating,"[7]; 62 g ai/ha, Preemergence",60
same,Groundsel plant response rating,"[7]; 125 g ai/ha, preemergence",85
same,Groundsel plant response rating,"[7]; 250 g ai/ha, preemergence",100
same,"Plant response rating, Groundsel",[7]; Preemergence,20
same,Johnsongrass plant response rating,"[8]; 62 g ai/ha, Preemergence",90
same,Johnsongrass plant response rating,"[8]; 125 g ai/ha, preemergence",100
same,Johnsongrass plant response rating,"[8]; 250 g ai/ha, preemergence",100
same,"Plant response rating, Johnsongrass","[8]; Preemergence, 31 g ai/ha",80
same,Field Bindweed plant response rating,"[9]; 62 g ai/ha, Preemergence",0
same,Field Bindweed plant response rating,"[9]; 125 g ai/ha, preemergence",20
same,Field Bindweed plant response rating,"[9]; 250 g ai/ha, preemergence",65
same,"Plant response rating, Field Bindweed","[9]; Preemergence, 31 g ai/ha",0
same,Barnyardgrass plant response rating,[10]; [17],100
same,Barnyardgrass plant response rating,[10]; [18],100
same,Barnyardgrass plant response rating,"[10]; 250 g ai/ha, preemergence, scale 0 to 100",100
same,"Plant response rating, Barnyardgrass",[10]; [19],90
same,Ragweed plant response rating,"[11]; 125 g ai/ha, preemergence",60
same,Ragweed plant response rating,"[11]; 250 g ai/ha, preemergence",80
same,"Plant response rating, Ragweed","[11]; Preemergence, 62 g ai/ha",60
same,"Plant response rating, Ragweed","[11]; Preemergence, 31 g ai/ha",50
same,Sandbur plant response rating,"[12]; 125 g ai/ha, preemergence",100
same,Sandbur plant response rating,"[12]; 250 g ai/ha, preemergence",100
same,"Plant response rating, Sandbur","[12]; Preemergence, 62 g ai/ha",100
same,"Plant response rating, Sandbur","[12]; Preemergence, 31 g ai/ha",80
same,"Crabgrass, Large plant response rating","[13]; 62 g ai/ha, Preemergence",98
same,"Crabgrass, Large plant response rating","[13]; 125 g ai/ha, preemergence",100
same,"Crabgrass, Large plant response rating","[13]; 250 g ai/ha, preemergence",100
same,"Plant response rating, Crabgrass, Large","[13]; Preemergence, 31 g ai/ha",75
same,"Ryegrass, Italian plant response rating","[14]; 125 g ai/ha, preemergence",100
same,"Ryegrass, Italian plant response rating","[14]; 250 g ai/ha, preemergence",100
same,"Plant response rating, Ryegrass, Italian","[14]; Preemergence, 62 g ai/ha",98
same,"Plant response rating, Ryegrass, Italian","[14]; Preemergence, 31 g ai/ha",50
same,Goosegrass plant response rating,"[15]; 62 g ai/ha, Preemergence",98
same,Goosegrass plant response rating,"[15]; 125 g ai/ha, preemergence",98
same,Goosegrass plant response rating,"[15]; 250 g ai/ha, preemergence",100
same,"Plant response rating, Goosegrass","[15]; Preemergence, 31 g ai/ha",70
same,"Foxtail, Green plant response rating","[16]; 62 g ai/ha, Preemergence",95
same,"Foxtail, Green plant response rating","[16]; 125 g ai/ha, preemergence",100
same,"Foxtail, Green plant response rating","[16]; 250 g ai/ha, preemergence",100
same,"Plant response rating, Foxtail, Green","[16]; Preemergence, 31 g ai/ha",60
